# Legend:
# [1] = tested on: C2C12 cells; assay: Binding stability: intracellular co-localization of peptides with exosomes (confocal microscopy, FRET); assay type: cell-based, murine
# Procedure: The intracellular co-localization of CP05 and EXP with exosomes was examined with confocal microscopy at different timepoints. FAM-labeled CP05 and EXP were incubated with DiI-labeled exosomes and then added into C2C12 cells.
# The meanings of the signs in the figure are as follows: DAPI means staining result for nuclei by DAPI, Peptide(488,520) refers to the excitation and emission wavelength of FAM-labeled CP05 and EXP; EXO(Dil)(540,620) refers to the excitation and emission wavelength for DiI-labeled exosomes; Merge is the superposition of above three staining results; FRET means fluorescence resonance energy transfer. Optical energy resonance transfer is an energy transfer phenomenon between two fluorescent molecules that are very close to each other. When the emission spectrum of the donor fluorescent molecule overlaps with the absorption spectrum of the acceptor fluorescent molecule, and the distance between two molecules is within the range of 10 nm, a […] energy transfer occurs. In the figure, the FAM-Peptide is the donor fluorescent molecule and DiI-EXO is the acceptor fluorescent molecule. […] EXOCP05 is the staining result of exosomes combined with CP05 sequence which is recorded in the prior art Chinese Patent No. CN201510520565.7, and EXOEXP refers to the staining result of the combination of EXP of the present invention and exosomes. […]
# [2] = tested on: exosomes; assay: Competitive binding of CP05 and EXP to exosomes (flow cytometry); settings: peptide alone with exosomes (FIG. 3A, first line)
# Procedure: AF750 (APC-Cy7)-labeled CP05 and FAM-labeled CP05 or EXP were co-incubated with exosomes at ratios of 1:1 or 1:5 (mass ratio), and the binding efficiency was detected with flow cytometry. It's shown by the results that when EXP and CP05 were incubated with exosomes at the same time, EXP could compete with CP05 to combine with exosomes, thus reducing the binding efficiency of CP05 and exosomes. (A) Flow cytometry to detect the binding efficiency of EXP or CP05 to exosomes. EXO was used as negative control; EXOCP05 is the binding efficiency of CP05 (FAM, af750) separately labeled by different fluorescence labeling with exosomes. EXOEXP is the binding efficiency of FAM labeled EXP andexosomes. 1:1, 1:5, 1:10 means different mass ratios of AF750 and FAM-EXP/FAM-CP05 are respectively as 1:1, 1:5, 1:10. It's shown by the results of flow cytometryto that the binding efficiency of CP05 alone with EXO was about 70%, while that of EXP and exosomes was 91.5% (flow cytometry to chart: the first line). […] However, it's found by comparing different fluorescence CP05 molecules (flow cytometry to chart: the third line) that, the binding efficiency of EXOCP05 (AF750) remained unchanged with increasing the mass ratio of FAM-CP05. […] Different fluorescence-labeled CP05 (APC-Cy7, FAM) were co-incubated with exosomes, their binding efficiency is detected with flow cytometry. […]
# [3] = tested on: exosomes in serum; assay: Capture of serum exosomes with His-tagged peptide coated nickel beads
# Text: (A) Nano sight was used to detect the particle size of exosomes in serum captured by CP05 and EXP. It's shown by the results that the particle size of exosomes captured by EXP was about 50 nm, whose homogeneity was higher than that of exosomes recovered by ultra separation. […] It's shown by the results that exosomes captured by EXP has typical bi-layer structure, and the size of exosomes captured by EXP was smaller than that of exosomes recovered by ultrafiltration.(D) Western blot was used to detect the marker protein capturing exosome.
# Experimental example 6: Characterization and functional validation of exosome captured from serum by EXP. • (1) His-tagged EXP and CP05 (100 μg) were respectively mixed with […] beads in 200 μl binding solution at 4° C. for 1 h under rotation. • (2) 1 ml pre-centrifuged serum was added to His-EXP and His-CP05 coated nickel beads (centrifuged at 4400 g for 20 min, followed by 13000 g for 5 min), and then incubated at 4° C. for 30 min; • (3) The serum was discarded and the nonspecific binding was washed with the washing solution for 3 times, 10 min each time. • (4) […] was used to recover extracellular vesicles.
# 6.1 Measurement of the size of captured exosomes. • (1) […] of exosomes recovered from elution were diluted into 1 ml of PBS. • (2) Nanosight was used to detect the size distribution of captured exosomes. […]
sequence,measurement,setting,value
CRHKMWTVKSRL (EXP),co-localization with EXO in cells at 48 hours,[1],still detectable
same,binding efficiency of peptide alone with EXO,[2],91.5%
same,capture efficiency of exosomes in serum,[3]; FIG. 6F,93.5%
same,extraction rate of serum exosomes compared with CP05,[3]; extraction of serum exosomes,about 2 times
